The results in this text go back to paper PMC2904498 (2010).

Like-named read-outs stand apart in the source and are kept apart here.

The target in assay [1] is T1, T. brucei neutral sphingomyelinase (TbnSMase) (Trypanosoma brucei, UniProt B9WNA2).
T1 sequence (B9WNA2 1-580): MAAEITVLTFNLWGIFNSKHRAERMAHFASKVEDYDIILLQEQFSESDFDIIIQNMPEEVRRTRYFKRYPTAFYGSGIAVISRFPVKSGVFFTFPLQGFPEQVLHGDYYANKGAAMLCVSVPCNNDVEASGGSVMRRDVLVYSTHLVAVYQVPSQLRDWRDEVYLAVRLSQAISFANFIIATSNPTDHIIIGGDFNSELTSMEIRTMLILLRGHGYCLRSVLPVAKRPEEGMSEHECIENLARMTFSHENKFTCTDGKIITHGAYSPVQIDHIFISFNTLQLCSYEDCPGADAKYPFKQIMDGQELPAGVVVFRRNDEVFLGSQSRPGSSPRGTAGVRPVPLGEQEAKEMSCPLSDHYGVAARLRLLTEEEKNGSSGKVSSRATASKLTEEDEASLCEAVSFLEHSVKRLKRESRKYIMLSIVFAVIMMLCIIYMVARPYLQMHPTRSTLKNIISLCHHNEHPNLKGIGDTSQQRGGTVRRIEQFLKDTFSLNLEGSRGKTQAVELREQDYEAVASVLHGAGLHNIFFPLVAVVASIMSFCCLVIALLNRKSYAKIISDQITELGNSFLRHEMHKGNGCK
Type of assay: biochemical.

For assay [2], the target named is T1, T. brucei neutral sphingomyelinase (TbnSMase). Type of assay: biochemical. This is another data set of the same source.

One may read the IC50 as the concentration at which inhibition is half-maximal. In the case of `O=C(/C=C/c1ccc(/C=C/C(=O)Nc2ccc(C3=NCCN3)cc2)cc1)Nc1ccc(C2=NCCN2)cc1` [GW4869], in assay [1], the IC50 was 14.4 ± 2.3 µM.

Take `CCCC[C@@H](C)/C=C(C)/C=C(\C)C(=O)NC1=C[C@@](O)(/C=C/C=C/C=C/C(=O)NC2=C(O)CCC2=O)[C@@H]2O[C@@H]2C1=O` [Manumycin A]: the IC50 in assay [1] is 24.6 ± 4.6 µM.

As to `CCCCCCCCCCCCCCCCCCOCC(COP(=O)([O-])OCC[N+](C)(C)C)OC` (stereo not drawn) [edelfosine], in assay [2], 21 ± 3.2 µM corresponded to half-maximal inhibition (IC50).
